Measured values from US10704079B2, “Methods for the detection of beta-lactamases in a sample” (priority 2007, dated 2020).
Converted amounts (≈) assume the structure as drawn. Where two headings read alike, the source gives them in different places.

Experiments:
Assay type in all cases: cell-based
E. coli (ESCCOL) strains = experiment: MIC assays of CTX, CCX, CAZ, CCZ, microbroth dilution (CLSI); conditions: Escherichia coli
Description: (§1) MIC Assays of CTX (cefotaxime), […] (cefotaxime/clavulanic acid), CAZ (ceftazidime) and CCZ (ceftazidime/clavulanic acid) were performed by microbroth dilution method according to the CLSI (Clinical and Laboratory Standards Institute) standard.

[1] = test system: Klebsiella pneumoniae (KLEPNEP) strains; experiment: as above
Description: as §1

E. coli strains = experiment: Cefoxitin MIC assay, microbroth dilution (CLSI)
Description: Cefoxitin MIC Assay were performed by microbroth dilution method according to the CLSI (Clinical and Laboratory Standards Institute) standard.

[2] = ESCCOL strain 2 of Table 20 (ESBL), read-out: MIC
[3] = ESCCOL strain 3 of Table 20 (OSBL), read-out: MIC
[4] = ESCCOL strain 4 of Table 20 (OSBL), read-out: MIC
[5] = ESCCOL strain 5 of Table 20 (WT), read-out: MIC
[6] = KLEPNEP strain 7 of Table 20 (ESBL), read-out: MIC
[7] = KLEPNEP strain 8 of Table 20 (OSBL), read-out: MIC
[8] = KLEPNEP strain 9 of Table 20 (OSBL), read-out: MIC
[9] = KLEPNEP strain 10 of Table 20 (WT), read-out: MIC

Structure (SMILES) | MIC (E. coli (ESCCOL) strains; [2]) [µg/mL] | MIC (E. coli (ESCCOL) strains; [3]) [µg/mL] | MIC (E. coli (ESCCOL) strains; [4]) [µg/mL] | MIC (E. coli (ESCCOL) strains; [5]) [µg/mL] | MIC [1, 6] [µg/mL] | MIC [1, 7] [µg/mL] | MIC [1, 8] [µg/mL] | MIC [1, 9] [µg/mL] | further results
CC(C)(O/N=C(\C(=O)N[C@@H]1C(=O)N2C(C(=O)[O-])=C(C[n+]3ccccc3)CS[C@H]12)c1csc(N)n1)C(=O)O [CAZ, ceftazidime] | 16 (≈ 29.3 µM) | ≤ 0.25 | ≤ 0.25 | ≤ 0.25 | 8 (≈ 14.6 µM) | ≤ 0.25 | ≤ 0.25 | ≤ 0.25 | MIC (E. coli (ESCCOL) strains): > 128 µg/mL; MIC [1]: > 128 µg/mL
CO/N=C(\C(=O)N[C@@H]1C(=O)N2C(C(=O)O)=C(COC(C)=O)CS[C@H]12)c1csc(N)n1 [CTX, cefotaxime] | > 64 | ≤ 0.25 | ≤ 0.25 | ≤ 0.25 | > 64 | ≤ 0.25 | ≤ 0.25 | 0.5 (≈ 1.1 µM) | MIC (E. coli (ESCCOL) strains; ESCCOL strain 1 of Table 20 (ESBL), read-out: MIC): 32 µg/mL (≈ 70.3 µM); MIC ([1]; KLEPNEP strain 6 of Table 20 (ESBL), read-out: MIC): > 64 µg/mL
CO[C@@]1(NC(=O)Cc2cccs2)C(=O)N2C(C(=O)O)=C(COC(N)=O)CS[C@@H]21 [Cefoxitin] | – | – | – | – | – | – | – | – | Cefoxitin MIC (E. coli strains; E. coli strain 1 of Table 18 (WT)): ≤ 4 µg/mL; Cefoxitin MIC (E. coli strains; E. coli strain 2 of Table 18 (OSBL, C-plasmid)): > 32 µg/mL; Cefoxitin MIC (E. coli strains; E. coli strain 3 of Table 18 (OSBL, C-chromo)): > 32 µg/mL; Cefoxitin MIC (E. coli strains; E. coli strain 4 of Table 18 (OSBL)): 32 µg/mL; Cefoxitin MIC (E. coli strains; E. coli strain 5 of Table 18 (ESBL, C-plasmid)): > 32 µg/mL; Cefoxitin MIC (E. coli strains; E. coli strain 6 of Table 18 (ESBL, C-chromo)): =32; Cefoxitin MIC (E. coli strains; E. coli strain 7 of Table 18 (ESBL)): =8; Cefoxitin MIC (E. coli strains; E. coli strain 8 of Table 18 (C-chromo)): > 32 µg/mL; Cefoxitin MIC (E. coli strains; E. coli strain 9 of Table 18 (Carbapenemase)): > 32 µg/mL; Cefoxitin MIC (E. coli strains; E. coli strain 10 of Table 18 (C-plasmid)): > 32 µg/mL; Cefoxitin MIC (E. coli strains; E. coli strain 11 of Table 18 (OSBL, C-plasmid)): > 32 µg/mL
